From ChEMBL document CHEMBL1201862, “PubChem BioAssay data set” (2004)
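Interpolation was linear, between the two tested concentrations surrounding the appropriate level; five concentrations were tested over 48 hours in 96-well plates. Abbreviation: GI50, concentration required for 50% inhibition of growth.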 The source made the active and inactive calls. Rule as the data show it: active = GI50 up to about 1.1 µM and inactive = higher.

Experiments:
Experiment in all cases: NCI anticancer screen, dose series, 48 h
SF-268 = tested on: SF-268
NCI-H460 = tested on: NCI-H460
CCRF-CEM = tested on: CCRF-CEM
U-251 = tested on: U-251
HT-29 = tested on: HT-29
UACC-62 = tested on: UACC-62
K562 = tested on: K562
OVCAR-4 = tested on: OVCAR-4
HOP-18 = tested on: HOP-18
SNB-78 = tested on: SNB-78
UACC-257 = tested on: UACC-257
SF-295 = tested on: SF-295
LOX IMVI = tested on: LOX IMVI
SK-MEL-28 = tested on: SK-MEL-28
HCC 2998 = tested on: HCC 2998
TK-10 = tested on: TK-10
HCT-15 = tested on: HCT-15
MOLT-4 = tested on: MOLT-4

SMILES	GI50 (SF-268)	GI50 (NCI-H460)	GI50 (CCRF-CEM)	GI50 (U-251)	GI50 (HT-29)	GI50 (UACC-62)	GI50 (K562)	GI50 (OVCAR-4)	GI50 (HOP-18)	GI50 (SNB-78)	GI50 (UACC-257)	GI50 (SF-295)	GI50 (LOX IMVI)	GI50 (SK-MEL-28)	GI50 (HCC 2998)	GI50 (TK-10)	GI50 (HCT-15) [µM]	GI50 (MOLT-4)
CCOc1ccc(OCC)c([P+](c2ccccc2)(c2ccccc2)c2ccccc2)c1	0.617 µM (active)	0.383 µM (active)	0.322 µM (active)	0.204 µM (active)	0.315 µM (active)	0.792 µM (active)	0.213 µM (active)	1.19 µM (inactive)	0.721 µM (active)	0.895 µM (active)	0.215 µM (active)	0.33 µM (active)	0.35 µM (active)	0.818 µM (active)	0.305 µM (active)	0.495 µM (active)		
Cc1nc2c(=O)n(C)c(=O)nc-2n(-c2ccc(Cl)cc2)c1C	> 100 µM (inactive)	> 100 µM (inactive)	60.1 µM (inactive)	> 100 µM (inactive)	> 100 µM (inactive)	43.9 µM (inactive)	41.7 µM (inactive)	31 µM (inactive)	> 100 µM (inactive)	> 100 µM (inactive)	> 100 µM (inactive)	> 100 µM (inactive)		> 100 µM (inactive)	> 100 µM (inactive)	> 100 µM (inactive)	61.9	
COc1cccc(-n2c3nc(=O)n(C)c(=O)c-3nc3ccccc32)c1	16.7 µM (inactive)	5.46 µM (inactive)	19 µM (inactive)	14.4 µM (inactive)	4.55 µM (inactive)	4.06 µM (inactive)	24.2 µM (inactive)	12.3 µM (inactive)	42.9 µM (inactive)	29.1 µM (inactive)	14.9 µM (inactive)	13.2 µM (inactive)		22.1 µM (inactive)	3.88 µM (inactive)	45.6 µM (inactive)	13.4	16.3 µM (inactive)
CC12O[Te]34OC1(C)C(C)(O3)C2(C)O4	11.8 µM (inactive)	15.3 µM (inactive)		3.77 µM (inactive)	13.2 µM (inactive)	30.1 µM (inactive)		14.6 µM (inactive)	17.5 µM (inactive)	25.5 µM (inactive)	17.4 µM (inactive)	3.86 µM (inactive)	3.56 µM (inactive)	12 µM (inactive)	0.016 µM (active)	17 µM (inactive)	17.4	6.47 µM (inactive)
O=C(CCN1CCOCC1)C(=Cc1ccccc1)C(=O)CCN1CCOCC1	6.85 µM (inactive)	12.8 µM (inactive)	0.796 µM (active)	14.1 µM (inactive)	2.98 µM (inactive)	2.31 µM (inactive)	0.836 µM (active)	5.28 µM (inactive)	16.8 µM (inactive)	0.164 µM (active)	1.79 µM (inactive)	15.6 µM (inactive)	1.93 µM (inactive)	2.38 µM (inactive)	13.7 µM (inactive)		2.1	1.32 µM (inactive)
Cc1cc(/N=N/c2ccc(/N=N/c3c(O)c(S(=O)(=O)O)cc4cc(S(=O)(=O)O)ccc34)cc2C)ccc1/N=N/c1ccc2cc(S(=O)(=O)O)cc(S(=O)(=O)O)c2c1	> 100 µM (inactive)	> 100 µM (inactive)	> 100 µM (inactive)	> 100 µM (inactive)	> 31.6 µM (inactive)	> 100 µM (inactive)	> 100 µM (inactive)	> 100 µM (inactive)	> 100 µM (inactive)	> 100 µM (inactive)	> 100 µM (inactive)	> 77.1 µM (inactive)	> 100 µM (inactive)	> 100 µM (inactive)	> 100 µM (inactive)		> 100	> 100 µM (inactive)
